The results in this text go back to patent publication US4935415A, “UCN-01 and process for production thereof” (priority 1986, dated 1990).

Molecules are shown by their SMILES. ≈ marks a conversion by molar mass, not a printed value.

The subject of series [1] is lymphocytic leukemia P388 tumor. Description: Therapeutic effect on lymphocytic leukemia P388 tumor. The format is in vivo, male CDF1 mice. On the procedure:
Therapeutic effect on lymphocytic leukemia P388 tumor:
Five male CDF1 mice each having a weight of about 22 g were used for each group as test animals, and 1×10^6 cells of lymphocytic leukemia P388 tumor were implanted intraperitoneally in the test animals. 24 hours after implantation, 0.2 ml of a phosphate buffer saline (hereafter referred to as PBS) containing UCN-01 was intraperitoneally administered.
The composition of PBS was 0.8% NaCl, 0.02% KCl, 1.15% Na2 HPO4, […] 0.02% KH2 PO4 (pH 7.0).
For comparison, 0.2 ml of PBS solution containing Staurosporine was intraperitoneally administered 24 hours after the implantation of the tumor cells. Increased life span (T/C) (T: mean survival days of the treated group, C: mean survival days of the control group) is shown in Table 5.

Series [2] in a line: LD50 of Staurosporine (note to Table 5). Conditions: in vivo; species and route not printed in the note.
Series [3] can be described thus: Acute toxicity (LD50), intraperitoneal administration to mice. Conditions: mouse, in vivo, ip. The protocol: The acute toxicity value (LD50) was 30 mg/kg by intraperitoneal administration to mice.
The next series has as its system Escherichia coli ATCC 26. Description: Anti-bacterial activity, agar dilution method (MIC). The format is cell-based. Conditions: ATCC26, pH 7. On the procedure:
(§1) The minimum inhibitory concentration (MIC) against various microorganisms is shown below.
(§2) The anti-bacterial activity was measured by the agar dilution method, using a medium (pH 7) prepared by dissolving 3 g of Bacto-Tryptone (manufacturedby Difco Co., Ltd.), 3 g of meat extract, 1 g of yeast extract, 1 g of glucose and 16 g of agar in 1 (of water.

Series [4] concerns Shigella sonnei ATCC 9290. The description is as above. The class given is cell-based. Conditions: ATCC9290, pH 7. The protocol:
as §1, §2

The test system of series [5] is Salmonella typhi ATCC 9992. The series is described as above. The class given is cell-based. Conditions: Salmonella enterica, pH 7. On the procedure: as §1, §2
In series [6] the test system is Bacillus subtilis No. 10707. Described as above. Conditions: pH 7. The format is cell-based. The protocol:
as §1, §2

The test system of series [7] is Staphylococcus aureus ATCC 6538P. Described as above. Conditions: ATCC6538P, pH 7. The class given is cell-based. On the procedure:
as §1, §2

Series [8] relates to Klebsiella pneumoniae ATCC 10031. The description is as above. The format is cell-based. Conditions: ATCC10031, pH 7. The protocol:
as §1, §2

Regarding `CN[C@@H]1C[C@H]2O[C@@](C)([C@@H]1OC)n1c3ccccc3c3c4c(c5c6ccccc6n2c5c31)C(=O)NC4` [Staurosporine, reference compound], the “Increased Life Span (T/C)” value is 1.10 in [1] (1 mg/kg, intraperitoneal, 24 hours after implantation); 1.12 in series [1] (2 mg/kg, intraperitoneal, 24 hours after implantation); 1.08 in [1] (4 mg/kg, intraperitoneal, 24 hours after implantation). Also, the LD50 (usually the dose expected to kill half of the subjects tested) in series [2] was found to be 6.6 mg/kg.

For the compound `CNC1CC2OC(C)(C1OC)n1c3ccccc3c3c4c(c5c6ccccc6n2c5c31)C(=O)NC4O` (stereo not drawn) [UCN-01], the “Increased Life Span (T/C)” value was 1.12 in [1] (7.5 mg/kg, intraperitoneal, 24 hours after implantation) and 1.24 in series [1] (15 mg/kg, intraperitoneal, 24 hours after implantation). In addition, the “Increased Life Span (T/C): toxic” value in series [1] (30 mg/kg, intraperitoneal, 24 hours after implantation) is reported as “toxic”. In addition, the “anti-tumor activity as compared with staurosporine” value in series [1] (comparison with staurosporine, in words) is “superior anti-tumor activity”. Moreover, in [3], the LD50 came out at 30 mg/kg. In addition, the MIC (as a rule, the lowest concentration that inhibits growth of the organism) against Escherichia coli ATCC 26 is 83 µg/mL (≈ 172 µM); in series [4] it was 100 µg/mL (≈ 207 µM); in series [5], 83 µg/mL (≈ 172 µM); in series [6] it was more than 100 µg/mL; in series [7], 83 µg/mL (≈ 172 µM); in series [8] it was 83 µg/mL (≈ 172 µM).
